These results are taken from patent US20080200531A1, “CDKI pathway inhibitors as inhibitors of tumor cell growth” (priority 2006, published 2008).

Assay [1] has as its system p21-induced CMV-GFP expression (CDKI pathway). In words: CMV-GFP reporter assay for p21-induced transcription (HTS) in HT1080 p21-9 derived reporter cell line. Type of assay: cell-based, human. As to conditions: libraries screened at 20 μM. An excerpt:
As described in a co-pending patent application PCT/US06/0 1046, we have developed a high-throughput screening (HTS) procedure for compounds inhibiting the CDKI pathway. This procedure utilizes a highly sensitive reporter cell line that was generated by infecting HT1080 p21-9 cells, a derivative of HT1080 fibrosarcoma cells that express p21 from a promoter induced by a physiologically neutral β-galactoside IPTG (isopropyl-β-thio-galactoside) with a lentiviral vector that expresses Green Fluorescent Protein (GFP) from the CDKI-inducible cytomegalovirus (CMV) promoter, followed by subcloning of GFP positive cells and monitoring the induction of GFP expression by IPTG. A cell line showing approximately 10-fold increase in GFP upon the addition of IPTG was used for HTS in a 96-well format.
This reporter line was used to screen two diversified small-molecule libraries developed by ChemBridge Corp., Microformat 04 and DiverSet, each comprising 50,000 compounds. These diversified libraries were rationally chosen by ChemBridge by quantifying pharmacophores in a collection of >500,000 drug-like molecules, using a version of Chem-X software to maximize the pharmacophore diversity. The Microformat 04 collection was designed to complement the chemical space covered by the older DiverSet library. ChemBridge libraries have been successfully used by numerous industrial and academic researchers, in a variety of cell-based and cell-free assays. The ChemBridge libraries were screened at 20 μM concentration, a conventional concentration for cell-based screening of these libraries. 62 of 100,000 ChemBridge compounds were identified by HTS and verified as inhibiting the induction of CMV-GFP expression in response to p21. This low hit rate (0.06%) indicates a high selectivity of our assay.
In this experiment, HT1080 p21-9 cells that express firefly luciferase from a CDKI-responsive promoter of cellular NK4 gene were cultured with IPTG for two days, which is sufficient for near-maximal induction of NK4 (Poole et al., supra).

Assay [2] concerns HT1080-derived reporter cell line. In words: Growth inhibition and cell death in HT1080-derived reporter cell line. The note with it: cell death detected microscopically by cell detachment. It is filed as cell-based, human. An excerpt:
The combination of p21 and SNX9-class compounds leads to both G1 and G2/M arrest, at the levels expected for the combined effects of p21 and SNX9 (FIG. 6).

The test system of assay [3] is NFκB p50 and p65 subunits. The assay is described as follows: TransAM NFκB p65 and p50 Chemi Transcription Factor Assay (oligonucleotide binding). It is filed as cell-based. The note with it: TNFα-induced or basal. An excerpt:
We also tested if these compounds could act as the inhibitors of NFκB, by measuring cellular levels of p50 or p65 subunits binding oligonucleotides containing NFκB consensus binding site, using ACTIVE MOTIF TransAM™ NFκB p65 Chemi and NFκB p50 Chemi Transcription Factor Assay Kits.

The test system of assay [4] is WI-38 and BJ-EN fibroblasts vs HT1080, HCT116, C33-A, Calu-6. In words: 3-day growth inhibition assay (Hoechst 33342), normal fibroblasts vs tumor cell lines. The note with it: 3-day assay, WI-38, BJ-EN vs HT1080, HCT116, C33-A.
Procedure: (§1) The assays were carried out in 96-well plates, in triplicates; the plated cell numbers for each cell line were determined in preliminary experiments to assure exponential growth over the 3-day period of the assay. The cell numbers were measured by staining DNA of attached cells with Hoechst 33342, and the results for each dose were expressed as the decrease in cell number relative to untreated cells. For some of the tumor/normal cell line combinations, the assays were repeated using CellTiter-Glo viability assay (Promega), with the same results.
Assay [5] concerns HMEC primary cultures, MCF-7 and MDA231. In words: 3-day growth inhibition assay (Hoechst 33342), normal mammary epithelial cells vs breast carcinoma lines. The note with it: 3-day assay; HMEC vs MCF-7 and MDA231.
Procedure: as §1
Assay [6] concerns isogenic human fibroblast cell lines (untransformed, partially transformed, fully transformed). In words: Dose-dependent growth inhibition of three isogenic human fibroblast cell lines with increasing neoplastic transformation. Type of assay: cell-based. As to conditions: 3-day assay, Hoechst 33342. The text has this: To determine if tumor-specific growth inhibitory activity of SNX9 class compounds could be due to the inhibition of a specific CDK, we took advantage of the availability of selective inhibitors for some of the CDK proteins. Among these enzymes, CDK1, CDK2 and CDK4/CDK6 (the latter two CDKs are closely related to each other and interact with the same class of cyclins), have been used as targets for developing specific inhibitors, with potential anticancer activity. In contrast, CDK3 has not been used as a target for developing selective inhibitors. We have obtained commercially available selective inhibitors of CDK1 (CGP74514A) (Calbiochem Cat. No. 217696), CDK2 (CVT-313) (Calbiochem Cat. No. 238803), and CDK4 (NSC 625987) (Calbiochem Cat. No. 219477), and tested them, along with a broad-specificity CDK inhibitor flavopiridol, and with SNX14, SNX9 and SNX9-1, for growth inhibition of normal and transformed fibroblasts.
This analysis was done using a set of three isogenic human fibroblast cell lines with increasing degrees of neoplastic transformation (immortal but untransformed, partially transformed, and fully transformed).

Take `NCCc1c[nH]c2ccc(Cl)cc12` [Compound 3]: in assay [1], the “anti-CDKI pathway activity in the reporter assay (induction of CMV-GFP expression in response to p21)” value is on record as “showed anti-CDKI pathway activity in the reporter assay”. The “growth inhibition of the HT1080-derived reporter cell line” value in assay [2] was “associated with the induction of both cell death (as detected microscopically by cell detachment) and cell cycle arrest”.

As for `COc1cc(Cl)c2[nH]cc(CCN)c2c1` [Compound 4], the “anti-CDKI pathway activity in the reporter assay (induction of CMV-GFP expression in response to p21)” value in assay [1] was “showed anti-CDKI pathway activity in the reporter assay”. For the same compound, the “growth inhibition of the HT1080-derived reporter cell line” value in assay [2] was “associated with the induction of both cell death (as detected microscopically by cell detachment) and cell cycle arrest”.

`Cc1ccc(S(=O)(=O)N[C@@H](Cc2ccccc2)C(=O)CCl)cc1` [TPCK, reference compound]: the “NFκB activity (p50 or p65 binding to NFκB consensus oligonucleotide)” value in assay [3] is listed as “completely blocks NFκB activity”.

As to `CC[C@@]1(O)C(=O)OCc2c1cc1n(c2=O)Cc2cc3ccccc3nc2-1` [camptothecin], the “tumor selectivity of growth inhibition, tumor cells vs normal fibroblasts” value in assay [4] was “showed no selectivity”. Moreover, in assay [5], the “tumor selectivity of growth inhibition, normal vs transformed mammary cells” value is “no discrimination between normal and transformed mammary cells”.

As to `COc1cccc2c1C(=O)c1c(O)c3c(c(O)c1C2=O)C[C@@](O)(C(=O)CO)C[C@@H]3O[C@H]1C[C@H](N)[C@H](O)[C@H](C)O1` [doxorubicin], the “tumor selectivity of growth inhibition, tumor cells vs normal fibroblasts” value in assay [4] is recorded as “showed no selectivity”. Also, the “tumor selectivity of growth inhibition, normal vs transformed mammary cells” value in assay [5] is “no discrimination between normal and transformed mammary cells”.

As to `CN1CC[C@H](c2c(O)cc(O)c3c(=O)cc(-c4ccccc4Cl)oc23)[C@H](O)C1` [flavopiridol], in assay [6], the “selectivity of growth inhibition for transformed cell lines relative to immortal but untransformed fibroblasts” value is “no transformed cell selectivity whatsoever”.

`CCn1cnc2c(Nc3cccc(Cl)c3)nc(N[C@@H]3CCCC[C@@H]3N)nc21` [selective CDK1 inhibitor, CGP74514A]: the “selectivity of growth inhibition for transformed cell lines relative to immortal but untransformed fibroblasts” value in assay [6] is “Much lower selectivity for transformed cells”.

Turning to `COc1ccc(CNc2nc(N(CCO)CCO)nc3c2ncn3C(C)C)cc1` [selective inhibitor of CDK2, CVT-313], the “selectivity of growth inhibition for transformed cell lines relative to immortal but untransformed fibroblasts” value in assay [6] is given as “no transformed cell selectivity whatsoever”.

For the compound `COc1ccc(OC)c2c(=S)c3ccccc3[nH]c12` [selective inhibitor of CDK4, NSC 625987], in assay [6], the “selectivity of growth inhibition for transformed cell lines relative to immortal but untransformed fibroblasts” value was “no transformed cell selectivity whatsoever”.

For `CC(=O)O[C@H]1C(=O)[C@@]2(C)[C@H]([C@H](OC(=O)c3ccccc3)[C@]3(O)C[C@H](OC(=O)[C@H](O)[C@@H](NC(=O)c4ccccc4)c4ccccc4)C(C)=C1C3(C)C)[C@]1(OC(C)=O)CO[C@@H]1C[C@@H]2O` [taxol, paclitaxel], the “tumor selectivity of growth inhibition, tumor cells vs normal fibroblasts” value in assay [4] is recorded as “inhibited all the tumor cells to a greater extent than normal fibroblasts”. In addition, in assay [5], the “tumor selectivity of growth inhibition, normal vs transformed mammary cells” value is “clear tumor selectivity”.
